# Assay results from ChEMBL document CHEMBL1221220, “Transport and signaling via the amino acid binding site of the yeast Gap1 amino acid transceptor” (Nat Chem Biol, 2009).
# Non-standard residues stand in square brackets, D forms with d. Residues, ends and D or L forms follow the SMILES beside them. *: point of attachment. Hyp = O=C(O)[C@@H]1C[C@@H](O)CN1; NMeD = CN[C@@H](CC(=O)O)C(=O)O; Boc = CC(C)(C)OC(=O)*; Aib = CC(C)(N)C(=O)O; βAla = NCCC(=O)O
# Biological target: T1, General amino-acid permease GAP1 (Saccharomyces cerevisiae) (UniProt P19145)
# T1 sequence (whole entry): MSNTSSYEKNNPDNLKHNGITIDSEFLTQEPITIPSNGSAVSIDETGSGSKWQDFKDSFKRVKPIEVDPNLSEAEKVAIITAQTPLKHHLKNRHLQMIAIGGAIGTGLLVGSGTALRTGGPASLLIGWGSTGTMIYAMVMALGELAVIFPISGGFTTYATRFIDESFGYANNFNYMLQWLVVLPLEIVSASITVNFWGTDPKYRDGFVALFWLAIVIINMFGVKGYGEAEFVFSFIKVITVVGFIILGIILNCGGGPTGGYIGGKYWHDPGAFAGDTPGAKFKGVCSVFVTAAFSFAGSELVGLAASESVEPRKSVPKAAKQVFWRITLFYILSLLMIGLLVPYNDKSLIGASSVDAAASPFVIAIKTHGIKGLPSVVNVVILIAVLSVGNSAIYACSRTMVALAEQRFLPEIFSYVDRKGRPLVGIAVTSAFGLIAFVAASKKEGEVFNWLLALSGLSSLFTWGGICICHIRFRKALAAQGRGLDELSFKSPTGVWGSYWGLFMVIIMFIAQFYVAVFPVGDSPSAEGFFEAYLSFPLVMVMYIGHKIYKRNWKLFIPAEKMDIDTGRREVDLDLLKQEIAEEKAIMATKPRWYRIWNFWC
# Settings: sigma1278b, at 5 mM
# Description: Inhibition of nitrogen-starved wild type sigma1278b yeast Gap1-mediated amino acid uptake at 5 mM after 60 secs relative to L-citrulline
# 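Note: amino acid uptake through Gap1 in nitrogen-starved wild-type yeast cells, measured after 60 s and expressed relative to L-citrulline.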
row,Structure (SMILES),inhibition [%]
1,NCCCC[C@H](N)C(=O)N[C@@H](Cc1c[nH]c2ccccc12)C(=O)O (H-Lys-Trp-OH),< 15
2,CC(=O)N[C@@H](CC[S+](C)[O-])C(=O)O (stereo partly specified),< 15
3,CSCC[C@H](NC(=O)[C@H](Cc1ccc(O)cc1)NC(=O)[C@@H](N)CC(=O)O)C(=O)O (H-Asp-Tyr-Met-OH),< 15
4,CC(C)C[C@H](NC(=O)CCN)C(=O)O,< 15
5,CC(C)C[C@H](NC(=O)[C@@H](N)CC(C)C)C(=O)O,< 15
6,CC(C)C[C@@H](N)C(=O)N[C@@H](CC(C)C)C(=O)O,< 15
7,NC(=O)[C@H](CCC(=O)O)NC(=O)[C@@H]1CCCN1 (H-Pro-Glu-NH2),< 15
8,CSCC[C@H](NC(=O)[C@H](CC(C)C)NC(=O)CN)C(=O)O (H-Gly-Leu-Met-OH),< 15
9,COC(=O)[C@@H](N)Cc1ccc(O)cc1,< 15
10,N[C@@H](CC(=O)O)C(=O)N[C@@H](CO)C(=O)O (H-Asp-Ser-OH),< 15
11,NCC(=O)N[C@@H](Cc1cnc[nH]1)C(=O)O (H-Gly-His-OH),< 15
12,CC(=O)N[C@@H](Cc1c[nH]c2ccccc12)C(=O)O,< 15
13,N[C@@H](Cc1ccccc1)C(=O)NCC(=O)O (H-Phe-Gly-OH),< 15
14,NCC(=O)NCCC(=O)NCCS(=O)(=O)O,< 15
15,CC(C)C[C@H](NC(=O)[C@H](CC(C)C)NC(=O)[C@@H](N)CC(=O)O)C(=O)O (H-Asp-Leu-Leu-OH),15
16,CC(C)(C)OC(=O)N[C@@H](CO)C(=O)O,< 15
17,NCC(=O)N[C@@H](CCC(=O)O)C(=O)O (H-Gly-Glu-OH),< 15
18,CC[C@H](C)[C@H](NC(=O)OC(C)(C)C)C(=O)O,< 15
19,COC(=O)[C@H](N)Cc1cnc[nH]1,< 15
20,CC(C)C[C@H](NC(=O)CN)C(=O)N[C@@H](Cc1ccc(O)cc1)C(=O)O (H-Gly-Leu-Tyr-OH),< 15
21,C[C@H](N)C(=O)N[C@H](CCC(=O)O)C(N)=O (H-Ala-[dE]-NH2),< 15
22,CC[C@H](C)[C@H](NC(=O)OCc1ccccc1)C(=O)O,15
23,CN[C@@H](CC(=O)O)C(=O)N[C@@H](Cc1ccccc1)C(N)=O (H-[NMeD]-Phe-NH2),< 15
24,CC(C)CC(NC(=O)C(C)N)C(=O)O (racemic),15
25,CC(C)C[C@H](N)C(=O)N[C@H](C(=O)O)C(C)C (H-Leu-Val-OH),< 15
26,N[C@@H](Cc1ccc(O)cc1)C(=O)NCC(=O)NCC(=O)O (H-Tyr-Gly-Gly-OH),< 15

row,Structure (SMILES),inhibition [%]
1,COC(=O)[C@@H](N)C(C)C,< 15
2,CSCC[C@H](N)C(=O)NCC(=O)NCC(=O)O (H-Met-Gly-Gly-OH),< 15
3,CC(C)C[C@H](NC(=O)[C@@H](N)CC(C)C)C(=O)NCCC(=O)O (H-Leu-Leu-[βAla]-OH),> 30
4,C[C@@H](O)[C@@H](NC(=O)CN)C(=O)O,< 15
5,C[C@H](N)C(=O)N[C@@H](CO)C(=O)O (H-Ala-Ser-OH),> 30
6,N[C@@H](CCC(=O)O)C(=O)N[C@@H](Cc1c[nH]c2ccccc12)C(=O)N[C@@H](CCC(=O)O)C(=O)O (H-Glu-Trp-Glu-OH),< 15
7,N[C@@H](Cc1cnc[nH]1)C(=O)NCC(=O)NCC(=O)O (H-His-Gly-Gly-OH),< 15
8,CC(C)C[C@H](N)C(=O)N[C@@H](CC(N)=O)C(=O)O (H-Leu-Asn-OH),< 15
9,C[C@H](N)C(=O)OC(C)(C)C,< 15
10,NC(=O)[C@@H](N)CO,< 15
11,NCCCC[C@H](NC(=O)[C@@H](N)Cc1ccc(O)cc1)C(=O)O (H-Tyr-Lys-OH),> 30
12,NCC(=O)N[C@@H](Cc1ccccc1)C(N)=O (H-Gly-Phe-NH2),15
13,CSCC[C@H](NC(=O)[C@@H](N)CCSC)C(=O)O (H-Met-Met-OH),< 15
14,N[C@@H](Cc1cnc[nH]1)C(=O)N[C@@H](CCC(=O)O)C(=O)O (H-His-Glu-OH),< 15
15,CSCC[C@H](N)C(=O)N[C@@H](CO)C(=O)O (H-Met-Ser-OH),< 15
16,CC(C)C[C@H](NC(=O)CN)C(=O)N1C[C@H](O)C[C@H]1C(=O)O (H-Gly-Leu-[Hyp]-OH),< 15
17,COC(=O)CC[C@H](NC(=O)OC(C)(C)C)C(=O)O,< 15
18,NCC(=O)NCC(=O)O (H-Gly-Gly-OH),< 15
19,O=C(O)C1CCCCN1 (stereo unspecified),< 15
20,N[C@H]1CSSC[C@@H](C(=O)O)NC1=O,15
21,CSCC[C@H](N)C(=O)NCC(=O)O (H-Met-Gly-OH),< 15
22,CC(C)C[C@@H](N)C(=O)NCC(=O)NCC(=O)O (H-[dL]-Gly-Gly-OH),< 15
23,CC(C)C[C@H](NC(=O)[C@@H](N)CC(C)C)C(=O)N[C@@H](CCC(=O)O)C(=O)O (H-Leu-Leu-Glu-OH),15
24,NCC(=O)N[C@@H](CO)C(=O)NCCS(=O)(=O)O,< 15
25,COC(=O)[C@@H](N)CC(C)C,< 15
26,CCOC(=O)[C@@H](N)Cc1c[nH]c2ccccc12,< 15

row,Structure (SMILES),inhibition [%]
1,CC(C)[C@H](N)C(=O)N[C@@H](CO)C(=O)O (H-Val-Ser-OH),< 15
2,C[C@H](N)C(=O)N[C@@H](Cc1c[nH]c2ccccc12)C(=O)O (H-Ala-Trp-OH),> 30
3,C[C@H](NC(=O)OC(C)(C)C)C(=O)NC(C)(C)C(=O)O (Boc-Ala-[Aib]-OH),< 15
4,N[C@@H](Cc1cnc[nH]1)C(=O)NCC(=O)N[C@@H](Cc1cnc[nH]1)C(=O)O (H-His-Gly-His-OH),< 15
5,CCC[C@@H](NC(=O)[C@@H](N)CCC(=O)O)C(=O)O,< 15
6,N=C(N)NCCC[C@H](NC(=O)[C@@H](N)Cc1ccccc1)C(=O)O (H-Phe-Arg-OH),< 15
7,NCC(=O)N1CCC[C@H]1C(=O)O (H-Gly-Pro-OH),< 15
8,NCC(=O)N[C@@H](CC(N)=O)C(=O)O (H-Gly-Asn-OH),< 15
9,CCC[C@H](N)C(=O)OC,< 15
10,CSCC[C@H](NC(=O)CN)C(=O)O,< 15
11,CC(C)(C)OC(=O)[C@@H](N)CSSC[C@H](N)C(=O)OC(C)(C)C,< 15
12,CC(C)C[C@H](N)C(=O)N[C@@H](C)C(=O)O (H-Leu-Ala-OH),< 15
13,CC(C)(C)OC(=O)N[C@@H](Cc1ccccc1)C(=O)O,> 30
14,CC(=O)N[C@@H](CCC(=O)OC(C)(C)C)C(=O)O,< 15
15,CC(C)C[C@H](NC(=O)[C@@H](N)CC(C)C)C(=O)N[C@@H](CC(=O)O)C(=O)O (H-Leu-Leu-Asp-OH),> 30
16,COC(=O)[C@@H](N)CCSC,< 15
17,CSCC[C@H](NC(=O)[C@H](CC(C)C)NC(=O)CN)C(N)=O (H-Gly-Leu-Met-NH2),< 15
18,COC(=O)[C@@H](N)Cc1c[nH]c2ccccc12,< 15
19,CC(C)(C)OC(=O)N1CCC[C@H]1C(=O)O,< 15
20,CC(NC(=O)CN)C(=O)O (racemic),15
21,C[C@H](NC(=O)CN)C(=O)O (H-Gly-Ala-OH),15
22,CC(C)C[C@H](NC(=O)[C@@H](NC(=O)[C@@H](N)[C@@H](C)O)C(C)C)C(=O)O (H-Thr-Val-Leu-OH),< 15
23,N[C@@H](CO)C(=O)NCC(=O)O (H-Ser-Gly-OH),< 15
24,CCOC(=O)[C@@H](N)Cc1ccccc1,< 15
